Data from patent US12178791B2, “Haloallylamine sulfone derivative inhibitors of lysyl oxidases and uses thereof” (Syntara Limited, priority 2018, dated 2024).
Structures can show the parent of a compound that is named as a salt. Where two headings read alike, the source gives them in different places.

What was measured:
Assay type in all cases: biochemical
[1] = target: Human recombinant SSAO/VAP-1 (Homo sapiens (Human), UniProt Q16853); assay: Inhibition of human recombinant SSAO/VAP-1
In short: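 Purified enzyme (residues 34-763, expressed in CHO Lec8 cells; 0.25 μg/mL in 0.1 M sodium phosphate pH 7.4) was preincubated with compound 30 min at 37 °C. An added mix held 600 μM benzylamine, 120 μM Amplex Red and 1.5 U/mL HRP. Fluorescence (ex 565/em 590 nm) was read every 2.5 min for 30 min at 37 °C, and IC50 was derived from kinetic slopes over 4-11-point curves.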

Bovine LOX = Bovine LOX (Bos taurus (Bovine), UniProt P33072); assay: LOX inhibition, Amplex Red oxidation assay; conditions: 30 min preincubation at 37 °C, putrescine substrate
In short: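 Bovine LOX in 1.2 M urea, 50 mM sodium borate pH 8.2, with 1 μM mofegiline and 0.5 mM pargyline unless recombinant or purified. The added mix held putrescine at twice KM (20 mM for LOX), 120 μM Amplex Red and 1.5 U/mL HRP.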

LOXL2 = LOXL2 (Homo sapiens (Human), UniProt Q9Y4K0); assay: Jump dilution experiment, sustained inhibition of LOXL2; conditions: jump dilution after 40 min at 37 °C with 10× or 30× IC50; vs non-inhibited controls;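 further: 30× IC50 used only where needed so inhibitor exceeds enzyme concentration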
Procedure: Jump Dilution experiment: The assay was developed using a 96 well format and the starting enzyme concentration was set 100 times higher than for the inhibition studies. […] After the incubation, the mixture was diluted 50× in assay buffer, followed by a further 2× dilution in Amplex Red-horseradish peroxidase-putrescine reaction mix (same as per the inhibition studies) prior to the fluorescent measurement. Results were expressed in % recovery of the signal after a specified time by comparison with non-inhibited controls.

Recombinant human MAO-B = Recombinant human MAO-B (Homo sapiens (Human), UniProt P27338); assay: Inhibition of human recombinant MAO-B; conditions: benzylamine 100 μM
Procedure: The specificity of the compounds of this invention was tested by determining their ability to inhibit MAO-B activities in vitro. Recombinant human MAO-B (0.06 mg/mL; Sigma Aldrich) was used as source of MAO-B enzyme activities. The assay was performed in a similar way as for human SSAO/VAP-1 (Example 28) except, the substrate benzylamine was used at 100 μM.

[2] = 30 min preincubation at 37 °C, benzylamine 600 μM, read-out: SSAO/VAP-1 Activity IC50

Human recombinant SSAO/VAP-1, sequence (Q16853 34-763): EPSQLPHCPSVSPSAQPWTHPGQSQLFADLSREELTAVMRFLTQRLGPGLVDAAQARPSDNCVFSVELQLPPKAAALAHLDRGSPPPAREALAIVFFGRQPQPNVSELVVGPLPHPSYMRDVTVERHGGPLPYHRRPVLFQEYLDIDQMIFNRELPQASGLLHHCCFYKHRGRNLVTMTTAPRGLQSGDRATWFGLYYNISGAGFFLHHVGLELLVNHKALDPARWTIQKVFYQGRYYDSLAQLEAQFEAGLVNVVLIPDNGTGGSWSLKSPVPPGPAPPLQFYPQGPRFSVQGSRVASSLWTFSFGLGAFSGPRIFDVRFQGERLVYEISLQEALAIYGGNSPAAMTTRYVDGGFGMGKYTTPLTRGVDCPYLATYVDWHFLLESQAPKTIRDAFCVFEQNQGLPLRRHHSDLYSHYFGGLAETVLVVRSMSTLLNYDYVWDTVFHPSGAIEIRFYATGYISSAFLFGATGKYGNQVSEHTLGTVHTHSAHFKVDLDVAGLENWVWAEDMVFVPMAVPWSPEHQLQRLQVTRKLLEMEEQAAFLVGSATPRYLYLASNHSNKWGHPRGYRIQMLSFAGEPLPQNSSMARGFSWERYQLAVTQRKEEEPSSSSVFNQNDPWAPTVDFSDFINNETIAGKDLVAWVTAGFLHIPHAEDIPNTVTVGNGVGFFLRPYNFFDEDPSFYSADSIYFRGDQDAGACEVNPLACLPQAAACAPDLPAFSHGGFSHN
Recombinant human MAO-B, sequence (P27338 whole entry): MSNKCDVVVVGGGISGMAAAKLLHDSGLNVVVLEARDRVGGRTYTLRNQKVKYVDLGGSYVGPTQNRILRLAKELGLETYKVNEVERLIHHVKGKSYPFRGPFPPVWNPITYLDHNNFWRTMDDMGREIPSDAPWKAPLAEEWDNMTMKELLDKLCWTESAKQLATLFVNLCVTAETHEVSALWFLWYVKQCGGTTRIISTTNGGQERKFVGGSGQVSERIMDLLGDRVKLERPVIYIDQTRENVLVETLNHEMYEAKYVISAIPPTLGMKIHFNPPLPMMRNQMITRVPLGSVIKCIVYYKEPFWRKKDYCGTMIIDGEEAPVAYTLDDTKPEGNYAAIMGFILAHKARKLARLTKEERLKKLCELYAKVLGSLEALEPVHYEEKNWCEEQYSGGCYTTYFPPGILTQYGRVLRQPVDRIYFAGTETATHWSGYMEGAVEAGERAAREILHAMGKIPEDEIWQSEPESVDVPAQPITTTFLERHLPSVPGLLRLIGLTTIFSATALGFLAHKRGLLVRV
LOXL2, sequence (Q9Y4K0 26-774): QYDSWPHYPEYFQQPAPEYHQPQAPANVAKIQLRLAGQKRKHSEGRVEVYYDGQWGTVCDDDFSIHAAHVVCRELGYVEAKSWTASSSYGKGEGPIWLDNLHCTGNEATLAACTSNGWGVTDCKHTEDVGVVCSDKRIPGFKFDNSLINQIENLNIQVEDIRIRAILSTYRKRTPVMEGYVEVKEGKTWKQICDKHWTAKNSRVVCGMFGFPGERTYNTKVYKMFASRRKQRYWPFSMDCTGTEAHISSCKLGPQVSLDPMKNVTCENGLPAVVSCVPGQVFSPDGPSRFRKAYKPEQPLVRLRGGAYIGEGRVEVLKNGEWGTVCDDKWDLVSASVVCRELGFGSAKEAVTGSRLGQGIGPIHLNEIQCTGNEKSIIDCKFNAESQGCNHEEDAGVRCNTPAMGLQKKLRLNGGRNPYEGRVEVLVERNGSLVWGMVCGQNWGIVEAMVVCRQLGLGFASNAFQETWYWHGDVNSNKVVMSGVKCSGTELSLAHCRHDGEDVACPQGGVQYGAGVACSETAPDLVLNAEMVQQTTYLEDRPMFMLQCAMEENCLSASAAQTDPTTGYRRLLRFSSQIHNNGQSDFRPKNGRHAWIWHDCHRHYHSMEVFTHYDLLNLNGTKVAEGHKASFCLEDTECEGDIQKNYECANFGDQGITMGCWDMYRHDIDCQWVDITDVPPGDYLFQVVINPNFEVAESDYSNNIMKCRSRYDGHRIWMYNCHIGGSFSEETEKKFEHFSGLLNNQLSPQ
Bovine LOX, sequence (P33072 170-418): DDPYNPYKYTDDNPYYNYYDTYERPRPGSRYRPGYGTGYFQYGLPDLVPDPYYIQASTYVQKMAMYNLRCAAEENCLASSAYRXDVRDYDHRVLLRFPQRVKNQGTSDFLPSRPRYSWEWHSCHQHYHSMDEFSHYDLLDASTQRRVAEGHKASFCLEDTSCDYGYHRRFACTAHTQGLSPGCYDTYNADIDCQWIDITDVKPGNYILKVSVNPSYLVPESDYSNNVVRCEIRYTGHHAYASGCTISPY

Structure (SMILES)	IC50 [1, 2] [µM]	IC50 ([1]; second Table 6 (Example 38), read-out: Recombinant human SSAO (rhSSAO) inhibition (IC50)) [µM]	IC50 (Bovine LOX) [µM]	LOXL2 - Recovery of activity. (%) (LOXL2)	IC50 (Recombinant human MAO-B) [µM]
NC/C=C(\F)CS(=O)(=O)c1ccccc1 [Compound 1, (Z)-3-fluoro-4-(phenylsulfonyl)but-2-en-1-amine hydrochloride]	> 30	> 100	< 10	9.5	> 30
NC/C=C(\F)CS(=O)(=O)c1cccc2cccnc12 [Compound 33, (Z)-3-fluoro-4-(quinolin-8-ylsulfonyl)but-2-en-1-amine dihydrochloride]	> 10	–	< 10	6.9	> 30
